Results from the supplement of paper PMC13380429.

How the values were obtained:
Conditions in all cases: 72 h
Caco-2 [1] = assay: cell viability relative to DMSO; higher = less toxic
Calu-3 [2] = assay: as above
HepG2 [3] = assay: as above
U2OS [4] = assay: as above
Vero E6 [5] = assay: as above
Caco-2 [6] = assay: relative viability EC50 (midpoint between 100% and the lowest measured viability); higher = less toxic
Calu-3 [7] = assay: as above
HepG2 [8] = assay: as above
U2OS [9] = assay: as above
Vero E6 [10] = assay: as above
Caco-2 [11] = assay: drug sensitivity score (DSS) for viability; higher = more toxic; extreme values may be limits of the assay
Calu-3 [12] = assay: as above
HepG2 [13] = assay: as above
U2OS [14] = assay: as above
Vero E6 [15] = assay: as above

Structure (SMILES)	cell viability (Caco-2 [1]; 1 nM) [%]	cell viability (Caco-2 [1]; 10 nM) [%]	cell viability (Caco-2 [1]; 100 nM) [%]	cell viability (Caco-2 [1]; 1000 nM) [%]	cell viability (Caco-2 [1]; 10000 nM) [%]	cell viability (Calu-3 [2]; 1 nM) [%]	cell viability (Calu-3 [2]; 10 nM) [%]	cell viability (Calu-3 [2]; 100 nM) [%]	cell viability (Calu-3 [2]; 1000 nM) [%]	cell viability (Calu-3 [2]; 10000 nM) [%]	cell viability (HepG2 [3]; 1 nM) [%]	cell viability (HepG2 [3]; 10 nM) [%]	cell viability (HepG2 [3]; 100 nM) [%]	cell viability (HepG2 [3]; 1000 nM) [%]	cell viability (HepG2 [3]; 10000 nM) [%]	cell viability (U2OS [4]; 1 nM) [%]	cell viability (U2OS [4]; 10 nM) [%]	cell viability (U2OS [4]; 100 nM) [%]	cell viability (U2OS [4]; 1000 nM) [%]	cell viability (U2OS [4]; 10000 nM) [%]	cell viability (Vero E6 [5]; 1 nM) [%]	cell viability (Vero E6 [5]; 10 nM) [%]	cell viability (Vero E6 [5]; 100 nM) [%]	cell viability (Vero E6 [5]; 1000 nM) [%]	cell viability (Vero E6 [5]; 10000 nM) [%]	relative viability EC50 (Caco-2 [6]) [µM]	relative viability EC50 (Calu-3 [7]) [µM]	relative viability EC50 (HepG2 [8]) [µM]	relative viability EC50 (U2OS [9]) [µM]	relative viability EC50 (Vero E6 [10]) [µM]	drug sensitivity score (Caco-2 [11])	drug sensitivity score (Calu-3 [12])	drug sensitivity score (HepG2 [13])	drug sensitivity score (U2OS [14])	drug sensitivity score (Vero E6 [15])
COC(=O)[C@H](Cc1cccc(C(=N)N)c1)[C@@H](C)NC(=O)c1ccc(-c2cc[n+]([O-])cc2)cc1 [otamixaban]	104	104	101	99.2	104	88.9	92	90.5	94.4	105	89.3	103	98.6	102	96.7	99.1	95.3	98.3	97.8	104	103	101	94.1	97.9	96.3	> 10	> 10	> 10	> 10	> 10	0	0	0	0	0
Clc1ccc(CO/N=C(\Cn2ccnc2)c2ccc(Cl)cc2Cl)c(Cl)c1 [oxiconazole]	106	94.8	99.8	90	83.5	97.5	87.3	83.4	94.8	103	97.4	103	105	98.5	89.7	100	97.3	97.6	91.1	92	99.9	105	95.4	102	95.5	> 10	> 10	> 10	> 10	> 10	1.1	0	0	0	0
C=CCOc1ccccc1OCC(O)CNC(C)C (stereo not given) [oxprenolol]	102	91.5	98	91.2	97.9	111	90.8	108	93.2	103	97.4	97.8	93.3	113	107	106	97.7	99.8	101	102	98.6	104	102	106	98.6	> 10	> 10	> 10	> 10	> 10	0	0	0	0	0
Cc1ccc(S(N)(=O)=O)cc1 [para-toluenesulfonamide]	103	99.2	98.1	98.9	100	102	94.8	91.1	91.8	95.9	105	107	110	94.4	120	100	96	97.7	102	104	102	94.6	98.4	99.2	103	> 10	> 10	> 10	> 10	> 10	0	0	0	0	0
CC1(C)S[C@@H]2[C@H](NC(=O)COc3ccccc3)C(=O)N2[C@H]1C(=O)O [penicillin-v-potassium]	97.5	95.6	94.3	92.7	90	91.3	97.1	101	108	94.9	105	105	103	94.9	97.4	101	96.4	99.8	97	98.7	104	101	104	103	96.9	> 10	> 10	> 10	> 10	> 10	0	0	0	0	0
CN1CCN(c2ccc3[nH]c(-c4ccc5[nH]c(-c6ccc(O)cc6)nc5c4)nc3c2)CC1 [pibenzimol]	98.6	88.8	98	100	103	108	93.8	106	116	122	101	97.4	81.2	64.1	42.7	103	97.2	101	100	93.8	100	100	96	98.9	98.3	> 10	> 10	0.35	> 10	> 10	0	0	8.8	0	0
CN1CCC(=C2c3ccccc3CCc3sccc32)CC1 [pizotifen]	97.6	104	101	107	99.2	96	88.7	102	91.3	98.2	96.2	101	99.1	109	101	94.6	95.6	101	94.4	94.6	98.3	98.6	97.9	100	103	> 10	> 10	> 10	> 10	> 10	0	0	0	0	0
CCCN[C@H]1CCc2nc(N)sc2C1 [pramipexole]	97.3	103	99.7	96.8	107	91.7	111	107	102	110	88.2	90.8	109	99.3	108	96.2	98.2	95.5	98.6	103	104	104	105	99	101	> 10	> 10	> 10	> 10	> 10	0	0	0	0	0
CC(=O)OCC(=O)[C@@]1(O)CC[C@H]2[C@@H]3CCC4=CC(=O)C=C[C@]4(C)[C@H]3[C@@H](O)C[C@@]21C [prednisolone-acetate]	110	108	93.3	106	85.8	99.5	92.3	82.6	87	98.1	107	106	93.1	90.9	114	110	106	100	101	97.8	99.5	106	104	102	94.4	> 10	> 10	> 10	> 10	> 10	0.1	0	0	0	0
C[C@]12C=CC(=O)C=C1CC[C@@H]1[C@@H]2C(=O)C[C@@]2(C)[C@H]1CC[C@]2(O)C(=O)CO [prednisone]	95.8	99.6	100	89.7	85.3	97.8	98.1	98	106	103	100	105	98	101	90.6	98.9	99.2	95.7	99.6	95	100	99.3	104	97.4	94.6	> 10	> 10	> 10	> 10	> 10	0.9	0	0	0	0
CCCOC(=O)c1ccc(O)cc1 [propyl 4-hydroxybenzoate]	92.2	100	102	90.2	109	92.1	95.4	88.7	92.1	102	108	102	107	89	102	102	97.1	100	98.9	102	108	95.9	102	95.3	100	> 10	> 10	> 10	> 10	> 10	0	0	0	0	0
c1ccc2nc(N3CCNCC3)ccc2c1 [quipazine]	99	98.9	93.1	95.3	106	102	101	109	96.1	99.3	93.7	97.8	99.7	93.5	101	100	97.4	102	100	100	90.8	96.3	92.1	96.7	101	> 10	> 10	> 10	> 10	> 10	0	0	0	0	0
C[C@H](NCc1ccc(OCc2cccc(F)c2)cc1)C(N)=O [safinamide]	97.9	97.4	101	102	100	95	101	92.2	102	108	98.1	92.5	98.4	93.4	96.6	94.2	102	99	105	108	101	89.8	99.5	97.2	100	> 10	> 10	> 10	> 10	> 10	0	0	0	0	0
